Patent US12404303B2, “Polypeptide and use thereof” (NANJING ANJI BIOLOGICAL TECHNOLOGY CO., LTD., priority 2019, dated 2025)
No end group written: not given here.

How the values were obtained:
[1] = test system: SD rats with renal fibrosis; assay: Renal fibrosis animal model (ureter ligation), TGF-β1 in serum; format: in vivo; settings: 7.5 mg/kg subcutaneous twice a day, 14 days, vs model group; FIG. 4
Experimental: A renal fibrosis animal model was established. SD rats were anesthetized with 4% chloral hydrate, injected with 1 mL/100 g intraperitoneally, fixed to an operation board, and sterilized in an operation area for later use. […] Muscular layers and abdominal walls were sewed layer by layer, the suture was disinfected with alcohol. After SD rats woke up, the rats were put into a cage for feeding. In the blank group, ureter was not ligated, and other steps were the same. Then, the animals fell into a blank group, a model group, and polypeptide administration groups, and the administration was started on the second day after the operation, twice a day for 14 days. After administration for 14 days, blood was taken and supernatant was taken to detect the content of TGF-β1 in serum. [table]

skin fibrosis model mice = assay: Skin fibrosis model induced by bleomycin, HYP in skin tissue; format: in vivo, C57/BL black mice; settings: skin tissue of the mouse back; 10 mg/kg subcutaneous twice a day, 28 days, vs model group; FIG. 6
Experimental: Bleomycin (10 μg/mL) was injected subcutaneously every day for 28 days to form skin fibrosis. During the modeling period, the administration groups were given polypeptide drugs every day for treatment, with 10 mice in each group. After modeling, the mice were killed on the next day, and the skin tissue of the mouse back was taken to detect the content of HYP in the skin tissue. [table]

[2] = test system: SD rats with bleomycin-induced pulmonary fibrosis; assay: Bleomycin-induced pulmonary fibrosis animal model; format: in vivo; settings: bleomycin 5 mg/kg intratracheal, polypeptides 7.5 mg/kg subcutaneous twice a day, positive drug 25 mg/kg intragastric once a day, 14 days
Experimental: SD rats were anesthetized by intraperitoneal injection of 1 mL/100 g 4% chloral hydrate. After anesthesia, the rats were fixed and their necks were disinfected by using cotton with 75% alcohol. The skin of the rat neck was longitudinally cut with scissors, and the fascia and muscle were longitudinally bluntly torn with tweezers to expose the trachea. A syringe was inserted into the trachea to inject 5 mg/kg bleomycin, while a blank group was injected with an equal amount of normal saline. Then a rat plate was quickly erected and rotated, the rats' breathing was observed, the neck wound was sterilized after rotation and was sewn, and an amoxicillin anti-inflammatory drug was sprinkled on the suture. After the operation, the rats were put back into a dry and clean cage for resting, waiting was performed for awakening. The rats were awakened after about 1-2 hours, and then fed normally. On the 7th day after modeling, modeling group animals randomly fell into a model group, a Nintedanib positive drug group, polypeptide I, II, III and IV dosage groups, and a normal control group, and the groups were administered separately for an administration cycle of 14 days. Living situations of rats were observed every day and their weights were weighed.

chlamydia pneumoniae = assay: Mouse pneumonia model, chlamydia pneumonia; format: in vivo, BALB/C mice; settings: average values±standard deviation
Description: (§1) A mouse pneumonia model was successfully established by using a nasal drip method. BALB/C mice with a body weight of 18-24 g were selected, and then anesthetized with ether on day 0, day 1 and day 2, respectively, prepared streptococcus pneumoniae bacteria solution, adenovirus concentrated solution, mycoplasma pneumoniae, chlamydia pneumoniae, protozoa and pneumonia fungi were slowly dropped into the nasal cavity of the mice, so that the bacteria solutions entered the trachea and bronchi, and the bacteria solutions were prevented from flowing into the esophagus during the operation to avoid inactivation of the bacteria solutions, so that the mouse pneumonia model was established. After the model was successfully established, the polypeptide according to the present disclosure was administered, as shown in FIG. 7 and Table 9. […] The experimental results are represented on the basis of average values±standard deviation.

adenovirus = assay: Mouse pneumonia model, viral pneumonia; format: in vivo, BALB/C mice; settings: average values±standard deviation
Description: as §1

pneumonia fungi = assay: Mouse pneumonia model, fungal pneumonia; format: in vivo, BALB/C mice; settings: average values±standard deviation
Description: as §1

LX-2 cells = assay: Proliferation of LX-2 cells induced by TGF-β1 (MTT, in vitro hepatic fibrosis model); format: cell-based; settings: polypeptide 1 μmol/L, TGF-β1 10 ng/mL, 48 hours
Experimental: LX-2 cells were cultured in 1640 medium containing 10% FBS, and cultured in an incubator with 5% CO2 at 37° C. The medium was replaced every two days, and subcultured according to the cell density. The LX-2 cells in a logarithmic growth phase were digested with 0.25% pancreatin to make cell suspension. The density of the cells was adjusted to 4×10^5 cells/mL, and the cells were inoculated into 96-well plates with 100 μL per well and cultured overnight. On the second day, TGF-β1 was added to induce the proliferation and activation of the LX-2 cells, and the polypeptide drugs were administrated at 1 μmol/L. TGF-β1 (10 ng/mL) was added to each group except the blank group. The cells were cultured in the incubator for 48 hours, and then 10 μL of MTT was added to each well. The MTT was removed after 4 hours, and 150 μL of DMSO was added for reaction for 5 min. An OD value was measured by a microplate reader at 570 nm.

myelofibrosis model mice = assay: Myelofibrosis model induced by rh EPO; format: in vivo, Kunming mice; design: WBC / Hb / MCV / RDW: unit not given here; settings: 10 mg/kg subcutaneous twice a day, 28 days
Experimental: There were 10 mice in each group. The normal control group was injected with normal saline (0.3 mL for each mouse), and the remaining groups were injected with rh EPO (0.1 unit/gram, body weight, 0.3 mL for each mouse) intraperitoneally every day. After induction for two days, drug therapy was started, subcutaneous injection was given twice a day, and after continuous administration for 28 days, the mouse heart was punctured for blood extraction, some blood was used for peripheral blood analysis, some blood was centrifuged, and the supernatant was taken to measure the content of TGF-β1 in the serum of mice. [table]

[3] = test system: cardiac fibroblasts of rats; assay: Proliferation of cardiac fibroblasts of rats (MTT, in vitro myocardial fibrosis model); format: cell-based; settings: 1 μmol/L
Experimental: The inhibitory effect of a polypeptide on cardiac fibroblasts of rats was detected by MTT assay. Cells were cultured in a DMEM medium containing 10% of FBS, the cytoplasm was made into 1×10^5/mL cell suspension, and 100 μL per well was inoculated into a 96-well plate. After the cells adhered to the wall, the medium was replaced with a serum-free DMEM medium, and the serum-free medium was discarded after 24 hours. The cells were cultured with different polypeptides of 1 μmol/L, and 5 multiple wells were set for each concentration. After 12, 24 and 48 hours separately, 10 μL of MTT was added to each well. After 4 hours, MTT was sucked out, and 150 μL of DMSO was added to each well. After reaction for 5 min, an OD value was measured at 570 nm by a microplate reader.

protozoa = assay: Mouse pneumonia model, protozoal pneumonia; format: in vivo, BALB/C mice; settings: average values±standard deviation
Description: as §1

mycoplasma pneumoniae = assay: Mouse pneumonia model, mycoplasma pneumonia; format: in vivo, BALB/C mice; settings: average values±standard deviation
Description: as §1

streptococcus pneumoniae = assay: Mouse pneumonia model, bacterial pneumonia; format: in vivo, BALB/C mice; settings: average values±standard deviation
Description: as §1

pulmonary infections = assay: Mouse pneumonia model, pneumonia caused by pulmonary infections; format: in vivo, BALB/C mice; settings: average values±standard deviation
Description: as §1

RGADRAGGGGPRCYRGE [Polypeptide III]
content of TGF-β1 in serum [1]: highly significantly different from the model group (**P<0.01) | expression of HYP in the skin tissue (skin fibrosis model mice): highly significantly different from the model group (*P<0.05) | Survival rate (%) [2]: 78.6% | Inhibitory effect on pulmonary infections, Chlamydia pneumonia (chlamydia pneumoniae): 54.40 ± 5.41 | Inhibitory effect on pulmonary infections, Viral pneumonia (adenovirus): 65.49 ± 9.94 | Inhibitory effect on pulmonary infections, Fungal pneumonia (pneumonia fungi): 62.88 ± 5.49 | inhibition of proliferation and activation of LX-2 cells, difference from model group (LX-2 cells): significantly different from the model group (*P<0.05) | OD value (LX-2 cells; MTT, 570 nm): 0.63 ± 0.03 | content of TGF-β1 in serum (myelofibrosis model mice; mouse serum, vs model group, FIG. 5): highly significantly different from the model group (**P<0.01) | Hb (myelofibrosis model mice; peripheral blood): 145 ± 17 | MCV (myelofibrosis model mice; peripheral blood): 53 ± 8 | RDW (myelofibrosis model mice; peripheral blood): 28 ± 1 | WBC (myelofibrosis model mice; peripheral blood): 5.79 ± 1.23 | Optical density values, 12 hours ([3]; 12 hours, MTT, 570 nm): 0.329 ± 0.012 | Optical density values, 24 hours ([3]; 24 hours, MTT, 570 nm): 0.402 ± 0.012 | Optical density values, 48 hours ([3]; 48 hours, MTT, 570 nm): 0.612 ± 0.018 | inhibition of the proliferation of cardiac fibroblasts of rats ([3]; at 24 hours and 48 hours): could inhibit the proliferation | Inhibitory effect on pulmonary infections, Protozoal pneumonia (protozoa): 64.29 ± 8.07 | Inhibitory effect on pulmonary infections, Mycoplasma pneumonia (mycoplasma pneumoniae): 43.93 ± 5.34 | Inhibitory effect on pulmonary infections, Bacterial pneumonia (streptococcus pneumoniae): 42.29 ± 8.76 | Inhibitory effect on pulmonary infections, Pneumonia caused by pulmonary infections (pulmonary infections): 56.18 ± 3.31
